Experiment [1] deals with Mycobacterium tuberculosis. In words: Inhibition of siderophore production in Mycobacterium bovis BCG at 250 to 1000 mM incubated for 15 days by universal CAS assay. Type of experiment: functional, organism-based. Conditions: variant bovis BCG.
Experiment [2] relates to Mycobacterium tuberculosis. Kind of experiment: Inhibition of myco-bactins production in Mycobacterium bovis BCG at 250 to 1000 mM by universal CAS assay. The experiment is classed as functional, organism-based. Conditions: variant bovis BCG.

The text below walks through data of ChEMBL document CHEMBL4616680, “Shedding X-ray Light on the Role of Magnesium in the Activity of Mycobacterium tuberculosis Salicylate Synthase (MbtI) for Drug Design” (J Med Chem, 2020).

Each structure is given as a SMILES string. Activity calls are given as the source filed them. The calls are words filed in the database; no cut-off is given here.

`N#Cc1cccc(-c2ccc(C(=O)O)o2)c1`: the inhibition entry in experiment [1] and in experiment [2] was “Active” each time.
